Laboratory results: patent US7750006B2, “Phthalazinone derivatives” (Kudos Pharmaceuticals Limited, priority 2000, dated 2010)

System: HeLa cells
Test: Dose Enhancing Factor: cell growth inhibition with bleomycin, SRB assay
Format: cell-based
Details: test compound 25 μM, bleomycin 0.5 μg/ml
Method: The Dose Enhancing Factor (DEF) is a ratio of the enhancement of cell growth inhibition elicited by the test compound in the presence of bleomycin compared to bleomycin alone. […] Bleomycin was used at a concentration of 0.5 μg/ml. The DEF was calculated from the formula:
[formula] where GrowthTC is cell growth in presence of the test compound; GrowthControl is cell growth of control cells; Growthbleo is cell growth in presence of bleomycin; and Growth(bleo+TC) is cell growth in presence of bleomycin and the test compound.
2,000 HeLa cells were seeded into each well of a flat-bottomed 96-well microtiter plate in a volume of 100 μl and incubated for 6 hours at 37° C. […] Cells were allowed to grow for a further 1 hour before the addition of bleomycin to either untreated cells or test compound treated cells. Cells untreated with either bleomycin or test compound were used as a control. Cells treated with test compound alone were used to assess the growth inhibition by the test compound.
Cells were left for a further 16 hours before replacing the media and allowing the cells to grow for a further 72 hours at 37° C. The media was then removed and the cells fixed with 100 μl of ice cold 10% (w/v) trichloroacetic acid. The plates were incubated at 4° C. for 20 minutes and then washed four times with water. Each well of cells was then stained with 100 μl of 0.4% (w/v) SRB in 1% acetic acid for 20 minutes before washing four times with 1% acetic acid. Plates were then dried for 2 hours at room temperature. The dye from the stained cells was solubilized by the addition of 100 μl of 10 mM Tris Base into each well.

Question: Which “DEF (Dose Enhancing Factor)” value does the source give for `O=c1[nH]nc(CSc2ccc(Cl)cc2)c2ccccc12` [Compound 90] here?
Answer: 1.8

Question: How did the “DEF (Dose Enhancing Factor)” value turn out when `O=c1[nH]nc(CSc2ccccn2)c2ccccc12` [Compound 91] was run?
Answer: 1.4

Question: How did the “DEF (Dose Enhancing Factor)” value turn out when `Cn1ccnc1SCc1n[nH]c(=O)c2ccccc12` [Compound 92] was run?
Answer: 1.5

Question: With `COC(=O)CSCc1n[nH]c(=O)c2ccccc12` [Compound 93] as the molecule, how does the “DEF (Dose Enhancing Factor)” value read?
Answer: 1.3

Question: `O=c1[nH]nc(Cc2ccc(Cl)cc2)c2ccccc12` [Compound 126] was tested. Which “DEF (Dose Enhancing Factor)” value did it give?
Answer: 1.9

Question: With `O=c1[nH]nc(Cc2ccc(Br)cc2)c2ccccc12` [Compound 129] as the molecule, how does the “DEF (Dose Enhancing Factor)” value read?
Answer: 1.3

Question: For `O=c1[nH]nc(Cc2cccc3ccccc23)c2ccccc12` [Compound 131], which “DEF (Dose Enhancing Factor)” value is on record?
Answer: 1.3

Question: Which “DEF (Dose Enhancing Factor)” value does the source give for `O=c1[nH]nc(Cc2ccc(F)cc2)c2ccccc12` [Compound 132] here?
Answer: 2.3

Question: How did the “DEF (Dose Enhancing Factor)” value turn out when `COc1ccc(Cc2n[nH]c(=O)c3ccccc23)cc1` [Compound 138] was run?
Answer: 1.3

Question: For `Cc1ccc(Cc2n[nH]c(=O)c3ccccc23)cc1` [Compound 139], which “DEF (Dose Enhancing Factor)” value is on record?
Answer: 1.4

Question: Which “DEF (Dose Enhancing Factor)” value does the source give for `O=c1[nH]nc(Cc2ccccc2F)c2ccccc12` [Compound 141] here?
Answer: 1.6

Question: With `O=c1[nH]nc(Cc2ccccc2)c2ccccc12` [Compound 145] as the molecule, how does the “DEF (Dose Enhancing Factor)” value read?
Answer: 1.8

Question: With `O=c1[nH]nc(Cc2ccc(I)cc2)c2ccccc12` [Compound 151] as the molecule, how does the “DEF (Dose Enhancing Factor)” value read?
Answer: 1.9

Question: For `Nc1cccc(Cc2n[nH]c(=O)c3ccccc23)c1` [Compound 160], which “DEF (Dose Enhancing Factor)” value is on record?
Answer: 1.5

Question: With `Cc1ccccc1Cc1n[nH]c(=O)c2ccccc12` [Compound 163] as the molecule, how does the “DEF (Dose Enhancing Factor)” value read?
Answer: 1.3

Question: How did the “DEF (Dose Enhancing Factor)” value turn out when `O=c1[nH]nc(Cc2ccc(O)cc2)c2ccccc12` [Compound 164] was run?
Answer: 1.3

Question: Which “DEF (Dose Enhancing Factor)” value does the source give for `O=c1[nH]nc(Cc2cccc(O)c2)c2ccccc12` [Compound 165] here?
Answer: 1.3

Question: Which “DEF (Dose Enhancing Factor)” value does the source give for `CC(=O)Nc1ccc(Cc2n[nH]c(=O)c3ccccc23)cc1` [Compound 166] here?
Answer: 1.4

Question: For `O=C(Nc1cccc(Cc2n[nH]c(=O)c3ccccc23)c1)c1cccs1` [Compound 169], which “DEF (Dose Enhancing Factor)” value is on record?
Answer: 1.5

Question: `O=C(Nc1cccc(Cc2n[nH]c(=O)c3ccccc23)c1)c1ccc(F)cc1` [Compound 170] was tested. Which “DEF (Dose Enhancing Factor)” value did it give?
Answer: 2.6

Question: Which “DEF (Dose Enhancing Factor)” value does the source give for `O=C(Nc1cccc(Cc2n[nH]c(=O)c3ccccc23)c1)c1ccccc1` [Compound 171] here?
Answer: 1.8

Question: With `CC(=O)Nc1cccc(Cc2n[nH]c(=O)c3ccccc23)c1` [Compound 172] as the molecule, how does the “DEF (Dose Enhancing Factor)” value read?
Answer: 1.4

Question: For `O=c1[nH]nc(Cc2ccncc2)c2ccccc12` [Compound 177], which “DEF (Dose Enhancing Factor)” value is on record?
Answer: 1.2

Question: `O=c1[nH]nc(Cc2cccnc2)c2ccccc12` [Compound 178] was tested. Which “DEF (Dose Enhancing Factor)” value did it give?
Answer: 1.9

Question: For `CC(=O)Oc1cccc(Cc2n[nH]c(=O)c3ccccc23)c1` [Compound 179], which “DEF (Dose Enhancing Factor)” value is on record?
Answer: 1.4

Question: How did the “DEF (Dose Enhancing Factor)” value turn out when `O=c1[nH]nc(Cc2ccc3c(c2)OCO3)c2ccccc12` [Compound 180] was run?
Answer: 1.2

Question: With `O=c1[nH]nc(Cc2cccc(Cl)c2)c2ccccc12` [Compound 186] as the molecule, how does the “DEF (Dose Enhancing Factor)” value read?
Answer: 1.6

Question: Which “DEF (Dose Enhancing Factor)” value does the source give for `O=c1[nH]nc(Cc2cccc(C(F)(F)F)c2)c2ccccc12` [Compound 191] here?
Answer: 1.5

Question: `O=c1[nH]nc(Cc2cccc(F)c2)c2ccccc12` [Compound 192] was tested. Which “DEF (Dose Enhancing Factor)” value did it give?
Answer: 1.4

Question: With `O=c1[nH]nc(Cc2cccc(Oc3ccccc3)c2)c2ccccc12` [Compound 193] as the molecule, how does the “DEF (Dose Enhancing Factor)” value read?
Answer: 2.2

Question: `O=c1[nH]nc(Cc2cccc(OCc3ccccc3)c2)c2ccccc12` [Compound 194] was tested. Which “DEF (Dose Enhancing Factor)” value did it give?
Answer: 1.6

Question: For `Nc1cc(Cc2n[nH]c(=O)c3ccccc23)ccc1N1CCSCC1` [Compound 198], which “DEF (Dose Enhancing Factor)” value is on record?
Answer: 2.3

Question: How did the “DEF (Dose Enhancing Factor)” value turn out when `O=c1[nH]nc(Cc2ccc(N3CCCC3)c([N+](=O)[O-])c2)c2ccccc12` [Compound 204] was run?
Answer: 1.6

Question: `O=C(O)COCC(=O)Nc1cc(Cc2n[nH]c(=O)c3ccccc23)ccc1N1CCOCC1` [Compound 206] was tested. Which “DEF (Dose Enhancing Factor)” value did it give?
Answer: 1.2

Question: With `O=c1[nH]nc(Cc2cccc(Br)c2)c2ccccc12` [Compound 211] as the molecule, how does the “DEF (Dose Enhancing Factor)” value read?
Answer: 1.4

Question: `O=C(Oc1cccc(Cc2n[nH]c(=O)c3ccccc23)c1)c1ccc(F)cc1` [Compound 212] was tested. Which “DEF (Dose Enhancing Factor)” value did it give?
Answer: 2.3

Question: How did the “DEF (Dose Enhancing Factor)” value turn out when `CC(=O)Oc1ccc(Cc2n[nH]c(=O)c3ccccc23)cc1` [Compound 213] was run?
Answer: 1.3

Question: How did the “DEF (Dose Enhancing Factor)” value turn out when `O=C(Nc1ccccc1)Nc1cccc(Cc2n[nH]c(=O)c3ccccc23)c1` [Compound 215] was run?
Answer: 1.4

Question: How did the “DEF (Dose Enhancing Factor)” value turn out when `O=C(Nc1ccc(F)cc1)Nc1cccc(Cc2n[nH]c(=O)c3ccccc23)c1` [Compound 216] was run?
Answer: 1.3

Question: How did the “DEF (Dose Enhancing Factor)” value turn out when `COc1cc(Cc2n[nH]c(=O)c3ccccc23)ccc1OCc1ccccc1` [Compound 222] was run?
Answer: 1.2

Question: For `O=C(Nc1ccc(Cc2n[nH]c(=O)c3ccccc23)cc1)c1ccc(F)cc1` [Compound 227], which “DEF (Dose Enhancing Factor)” value is on record?
Answer: 2.6

Question: For `O=c1[nH]nc(Cc2ccccc2F)c2ccccc12` [Compound 248], which “DEF (Dose Enhancing Factor)” value is on record?
Answer: 1.2
